Results on one compound are retold here after ChEMBL document CHEMBL5726992, “CGRP receptor antagonists” (2019).

The test concerns the target Calcitonin-gene-related peptide receptor, CALCRL/RAMP1 (Homo sapiens, UniProt O60894+Q16602). The test is described as follows: Radioligand Binding Assay: Human CGRP receptors expressed (consisting of CRLR and RAMP1) in insect Sf21 cell membrane homogenates were re-suspended in the binding buffer (10 mM HEPES, pH 7.4, 5 mM MgCl2, 0.2% BSA) to a final assay concentration of 0.6 μg protein per well. Saturation isotherms were determined by the addition of various concentrations of 3H-telcagepant (Ho et al, The Lancet, 2008, 372, 2115) (in a total reaction volume of 250 μL) for 60 min at rt. At the end of the incubation, membranes were filtered onto a unifilter, a 96-well white microplate with bonded GF/B filter pre-incubated with 0.5% PEI, with a Tomtec cell harvester and washed 5 times with distilled water. Non-specific binding (NSB) was measured in the presence of 10 nM MK-3207 hydrochloride (CAS No. 957116-20-0). Radioactivity on the filter was counted (1 min) on a microbeta counter after addition of 50 μL of scintillation fluid. For inhibition experiments, membranes were incubated with 0.5 nM 3H-telcagepant and 10 concentrations of the inhibitory compound (0.001-10 μM). IC50 values were derived from the inhibition curve and the affinity constant (Ki) values were calculated using the Cheng-Prussoff equation (Cheng et al, Biochem. Pharmacol. 1973, 22, 3099-3108).

pKi: −log10 of the molar value.

Chain of Calcitonin-gene-related peptide receptor, CALCRL/RAMP1 (O60894 whole entry): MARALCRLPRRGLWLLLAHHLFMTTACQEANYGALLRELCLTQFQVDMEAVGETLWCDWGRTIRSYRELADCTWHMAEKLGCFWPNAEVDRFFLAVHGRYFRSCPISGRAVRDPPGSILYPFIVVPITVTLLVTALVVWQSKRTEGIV
Chain of Calcitonin-gene-related peptide receptor, CALCRL/RAMP1 (Q16602 whole entry): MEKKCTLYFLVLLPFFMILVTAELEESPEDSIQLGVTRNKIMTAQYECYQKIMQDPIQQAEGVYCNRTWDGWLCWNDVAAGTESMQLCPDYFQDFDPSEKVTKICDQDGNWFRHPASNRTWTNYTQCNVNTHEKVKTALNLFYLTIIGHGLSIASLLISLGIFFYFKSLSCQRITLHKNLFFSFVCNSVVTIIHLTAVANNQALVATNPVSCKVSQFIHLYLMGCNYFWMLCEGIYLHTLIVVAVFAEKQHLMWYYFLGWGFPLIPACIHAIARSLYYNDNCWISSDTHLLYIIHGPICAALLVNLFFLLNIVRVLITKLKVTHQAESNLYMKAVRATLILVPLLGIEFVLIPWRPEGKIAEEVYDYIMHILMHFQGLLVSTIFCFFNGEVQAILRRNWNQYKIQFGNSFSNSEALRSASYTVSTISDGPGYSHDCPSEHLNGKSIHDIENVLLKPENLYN

Broadly, the pKi is −log10 of the Ki, conventionally taken in molar units. For `Cc1cc(C[C@@H](NC(=O)N2CCC(n3c(=O)[nH]c4ncccc43)CC2)C(=O)N[C@@H](CC2CCN(CCN(C)C)CC2)C(=O)N2CCN(c3ccncc3)CC2)cc2cn[nH]c12`, the pKi is 10.60.
